# Tested on: MCF-7 cells
# Assay: High dose E2 treatment of MCF-7 cells (apoptosis)
# Format: cell-based, human
# Conditions: high dose E2 treatment of MCF-7 cells
smiles,measurement,value
"C[C@]12CC[C@@H]3c4ccc(O)cc4CC[C@H]3[C@@H]1CC[C@@H]2O [E2, 17B-estridiol]",Effect of high dose E2 on cell fate (apoptosis),committed to apoptotic pathways

# Reference: US20030170740A1, “Characterized E2IG3 protein for diagnosis and treatment of proliferative diseases” (priority 2001, published 2003)
